Experimental findings from ChEMBL document CHEMBL5291721, “A preclinical secondary pharmacology resource illuminates target-adverse drug reaction associations of marketed drugs” (Nat Commun, 2023) are described below.

The target in experiment [1] is Delta-type opioid receptor (Homo sapiens, UniProt P41143).
Experiment [2] concerns the target cGMP-inhibited 3',5'-cyclic phosphodiesterase 3A (Homo sapiens, UniProt Q14432). In kind it is functional.
For experiment [3], the target named is T1, Amine oxidase [flavin-containing] A (Homo sapiens, UniProt P21397).
T1 sequence (P21397 whole entry): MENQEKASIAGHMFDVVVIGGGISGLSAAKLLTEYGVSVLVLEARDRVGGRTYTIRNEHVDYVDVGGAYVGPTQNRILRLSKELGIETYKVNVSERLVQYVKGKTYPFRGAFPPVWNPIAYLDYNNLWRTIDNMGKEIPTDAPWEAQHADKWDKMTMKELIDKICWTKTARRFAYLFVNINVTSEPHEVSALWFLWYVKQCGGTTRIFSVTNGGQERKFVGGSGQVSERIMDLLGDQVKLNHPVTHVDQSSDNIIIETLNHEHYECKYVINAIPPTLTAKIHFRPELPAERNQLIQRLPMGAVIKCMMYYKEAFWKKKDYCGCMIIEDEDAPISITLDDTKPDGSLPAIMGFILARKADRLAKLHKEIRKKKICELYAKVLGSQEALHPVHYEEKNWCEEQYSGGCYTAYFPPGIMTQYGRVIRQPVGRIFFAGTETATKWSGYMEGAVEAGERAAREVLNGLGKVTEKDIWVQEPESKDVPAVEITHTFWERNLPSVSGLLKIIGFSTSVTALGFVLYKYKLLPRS
It is filed as functional.

The target in experiment [4] is D(3) dopamine receptor (Homo sapiens, UniProt P35462).
Sequence of D(3) dopamine receptor (P35462 whole entry): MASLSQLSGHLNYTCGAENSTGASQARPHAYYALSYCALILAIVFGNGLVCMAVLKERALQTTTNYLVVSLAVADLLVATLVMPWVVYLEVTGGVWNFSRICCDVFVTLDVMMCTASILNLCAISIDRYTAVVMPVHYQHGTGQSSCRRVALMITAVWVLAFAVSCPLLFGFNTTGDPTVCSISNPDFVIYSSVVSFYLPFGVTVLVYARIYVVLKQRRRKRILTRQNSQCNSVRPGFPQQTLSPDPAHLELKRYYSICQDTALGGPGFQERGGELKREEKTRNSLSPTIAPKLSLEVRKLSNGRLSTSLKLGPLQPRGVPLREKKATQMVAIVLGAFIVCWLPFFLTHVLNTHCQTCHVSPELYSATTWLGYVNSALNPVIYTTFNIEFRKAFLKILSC
Experiment [5] addresses T2, Muscarinic acetylcholine receptor M2 (Homo sapiens, UniProt P08172).
T2 sequence (P08172 whole entry): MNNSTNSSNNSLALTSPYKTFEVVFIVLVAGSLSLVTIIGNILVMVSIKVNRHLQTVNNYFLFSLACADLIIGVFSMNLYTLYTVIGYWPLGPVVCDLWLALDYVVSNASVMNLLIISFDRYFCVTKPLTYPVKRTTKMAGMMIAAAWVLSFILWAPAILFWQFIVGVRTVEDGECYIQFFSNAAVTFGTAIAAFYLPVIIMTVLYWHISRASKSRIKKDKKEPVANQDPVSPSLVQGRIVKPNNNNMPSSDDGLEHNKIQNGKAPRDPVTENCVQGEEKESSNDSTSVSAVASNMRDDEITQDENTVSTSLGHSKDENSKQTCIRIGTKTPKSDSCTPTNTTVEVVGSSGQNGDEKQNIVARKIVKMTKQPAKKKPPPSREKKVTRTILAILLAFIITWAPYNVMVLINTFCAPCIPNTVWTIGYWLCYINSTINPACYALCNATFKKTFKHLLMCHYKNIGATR
It is filed as functional, cell-based.

Experiment [6] has as its target T3, Alpha-2A adrenergic receptor (Homo sapiens, UniProt P08913).
T3 sequence (P08913 whole entry): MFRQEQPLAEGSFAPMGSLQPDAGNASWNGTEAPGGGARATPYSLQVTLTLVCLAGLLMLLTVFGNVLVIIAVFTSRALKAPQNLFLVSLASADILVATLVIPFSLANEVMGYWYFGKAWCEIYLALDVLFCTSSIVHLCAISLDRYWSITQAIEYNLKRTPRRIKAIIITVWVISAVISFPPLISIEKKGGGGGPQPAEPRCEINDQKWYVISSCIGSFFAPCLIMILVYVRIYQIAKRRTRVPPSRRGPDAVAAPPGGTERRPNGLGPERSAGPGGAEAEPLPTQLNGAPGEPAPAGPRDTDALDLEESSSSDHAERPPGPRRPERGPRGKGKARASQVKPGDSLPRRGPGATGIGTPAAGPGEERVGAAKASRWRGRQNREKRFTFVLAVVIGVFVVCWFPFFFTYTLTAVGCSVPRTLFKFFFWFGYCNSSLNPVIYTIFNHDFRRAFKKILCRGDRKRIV
It is filed as functional, cell-based.

Experiment [7] concerns the target Sodium-dependent dopamine transporter (Homo sapiens, UniProt Q01959).
The target of experiment [8] is T2, Muscarinic acetylcholine receptor M2. It is filed as functional, cell-based. This is another data set of the same source.
The target in experiment [9] is T4, Estrogen receptor (Homo sapiens, UniProt P03372).
T4 sequence (P03372 whole entry): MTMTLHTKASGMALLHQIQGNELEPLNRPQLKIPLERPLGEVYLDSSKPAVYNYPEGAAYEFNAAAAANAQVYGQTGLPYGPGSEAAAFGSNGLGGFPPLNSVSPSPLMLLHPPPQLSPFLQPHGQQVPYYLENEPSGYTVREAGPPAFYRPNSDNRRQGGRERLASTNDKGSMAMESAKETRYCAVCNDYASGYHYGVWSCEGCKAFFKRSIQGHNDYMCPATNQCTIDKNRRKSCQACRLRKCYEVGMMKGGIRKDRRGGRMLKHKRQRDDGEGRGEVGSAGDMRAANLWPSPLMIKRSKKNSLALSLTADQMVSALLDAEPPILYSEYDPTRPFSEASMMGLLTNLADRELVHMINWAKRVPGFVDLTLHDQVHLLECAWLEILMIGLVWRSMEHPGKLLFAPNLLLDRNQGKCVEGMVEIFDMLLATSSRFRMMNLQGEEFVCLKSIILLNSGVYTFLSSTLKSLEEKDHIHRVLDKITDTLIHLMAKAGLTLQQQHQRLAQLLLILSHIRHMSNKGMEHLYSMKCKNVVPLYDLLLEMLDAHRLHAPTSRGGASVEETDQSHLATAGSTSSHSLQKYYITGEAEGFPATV

The target of experiment [10] is Motilin receptor (Homo sapiens, UniProt O43193).
Sequence of Motilin receptor (O43193 whole entry): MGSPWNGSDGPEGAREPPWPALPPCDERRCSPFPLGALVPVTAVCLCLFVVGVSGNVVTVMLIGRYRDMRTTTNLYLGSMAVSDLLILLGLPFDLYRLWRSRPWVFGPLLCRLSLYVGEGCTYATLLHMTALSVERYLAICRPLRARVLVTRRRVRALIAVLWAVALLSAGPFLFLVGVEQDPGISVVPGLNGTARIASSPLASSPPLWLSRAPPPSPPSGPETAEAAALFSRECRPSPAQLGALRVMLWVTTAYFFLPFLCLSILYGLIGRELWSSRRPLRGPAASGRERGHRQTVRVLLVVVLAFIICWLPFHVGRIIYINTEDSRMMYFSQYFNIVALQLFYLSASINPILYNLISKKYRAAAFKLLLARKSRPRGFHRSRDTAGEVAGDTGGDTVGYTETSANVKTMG
For experiment [11], the target named is T5, Equilibrative nucleoside transporter 1 (Homo sapiens, UniProt Q99808).
T5 sequence (Q99808 whole entry): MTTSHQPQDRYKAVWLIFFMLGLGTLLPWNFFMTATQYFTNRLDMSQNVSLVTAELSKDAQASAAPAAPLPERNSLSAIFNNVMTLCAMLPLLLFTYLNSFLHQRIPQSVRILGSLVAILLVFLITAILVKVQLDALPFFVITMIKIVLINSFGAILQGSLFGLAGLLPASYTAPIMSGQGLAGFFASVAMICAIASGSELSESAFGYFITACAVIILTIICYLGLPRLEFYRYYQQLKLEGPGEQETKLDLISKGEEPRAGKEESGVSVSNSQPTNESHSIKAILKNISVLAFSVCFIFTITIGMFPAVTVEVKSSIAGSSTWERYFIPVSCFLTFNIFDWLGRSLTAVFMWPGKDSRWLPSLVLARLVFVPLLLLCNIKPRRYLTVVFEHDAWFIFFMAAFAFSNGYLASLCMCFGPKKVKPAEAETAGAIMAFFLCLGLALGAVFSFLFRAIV
Also: assay procedure not described here.

Sequence of Delta-type opioid receptor (P41143 whole entry): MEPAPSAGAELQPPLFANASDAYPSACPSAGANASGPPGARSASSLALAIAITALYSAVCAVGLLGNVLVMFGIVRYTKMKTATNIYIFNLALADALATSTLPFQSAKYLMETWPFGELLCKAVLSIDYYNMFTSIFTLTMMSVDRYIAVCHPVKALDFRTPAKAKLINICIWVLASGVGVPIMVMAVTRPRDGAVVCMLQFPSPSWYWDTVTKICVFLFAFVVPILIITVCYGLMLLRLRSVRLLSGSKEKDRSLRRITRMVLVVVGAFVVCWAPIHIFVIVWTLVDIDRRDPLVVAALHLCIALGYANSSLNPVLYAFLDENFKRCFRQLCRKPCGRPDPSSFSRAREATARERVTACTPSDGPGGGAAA
Sequence of Sodium-dependent dopamine transporter (Q01959 whole entry): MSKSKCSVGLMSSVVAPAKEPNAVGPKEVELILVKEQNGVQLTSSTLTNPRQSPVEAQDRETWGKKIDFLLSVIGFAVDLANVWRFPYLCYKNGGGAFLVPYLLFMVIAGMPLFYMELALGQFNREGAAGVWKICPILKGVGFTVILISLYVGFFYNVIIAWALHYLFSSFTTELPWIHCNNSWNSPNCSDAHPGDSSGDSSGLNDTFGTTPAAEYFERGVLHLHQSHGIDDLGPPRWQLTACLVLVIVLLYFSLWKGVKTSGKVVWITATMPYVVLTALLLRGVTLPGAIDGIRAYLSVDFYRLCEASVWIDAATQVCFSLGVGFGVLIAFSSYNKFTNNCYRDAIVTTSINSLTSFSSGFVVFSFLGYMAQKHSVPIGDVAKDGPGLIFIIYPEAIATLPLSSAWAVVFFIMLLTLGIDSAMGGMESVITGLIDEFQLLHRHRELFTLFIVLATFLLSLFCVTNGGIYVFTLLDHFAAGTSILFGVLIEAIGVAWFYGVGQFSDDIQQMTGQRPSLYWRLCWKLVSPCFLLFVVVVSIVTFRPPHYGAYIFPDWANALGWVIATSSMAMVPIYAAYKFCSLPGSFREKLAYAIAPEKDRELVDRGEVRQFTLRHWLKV
Sequence of cGMP-inhibited 3',5'-cyclic phosphodiesterase 3A (Q14432 whole entry): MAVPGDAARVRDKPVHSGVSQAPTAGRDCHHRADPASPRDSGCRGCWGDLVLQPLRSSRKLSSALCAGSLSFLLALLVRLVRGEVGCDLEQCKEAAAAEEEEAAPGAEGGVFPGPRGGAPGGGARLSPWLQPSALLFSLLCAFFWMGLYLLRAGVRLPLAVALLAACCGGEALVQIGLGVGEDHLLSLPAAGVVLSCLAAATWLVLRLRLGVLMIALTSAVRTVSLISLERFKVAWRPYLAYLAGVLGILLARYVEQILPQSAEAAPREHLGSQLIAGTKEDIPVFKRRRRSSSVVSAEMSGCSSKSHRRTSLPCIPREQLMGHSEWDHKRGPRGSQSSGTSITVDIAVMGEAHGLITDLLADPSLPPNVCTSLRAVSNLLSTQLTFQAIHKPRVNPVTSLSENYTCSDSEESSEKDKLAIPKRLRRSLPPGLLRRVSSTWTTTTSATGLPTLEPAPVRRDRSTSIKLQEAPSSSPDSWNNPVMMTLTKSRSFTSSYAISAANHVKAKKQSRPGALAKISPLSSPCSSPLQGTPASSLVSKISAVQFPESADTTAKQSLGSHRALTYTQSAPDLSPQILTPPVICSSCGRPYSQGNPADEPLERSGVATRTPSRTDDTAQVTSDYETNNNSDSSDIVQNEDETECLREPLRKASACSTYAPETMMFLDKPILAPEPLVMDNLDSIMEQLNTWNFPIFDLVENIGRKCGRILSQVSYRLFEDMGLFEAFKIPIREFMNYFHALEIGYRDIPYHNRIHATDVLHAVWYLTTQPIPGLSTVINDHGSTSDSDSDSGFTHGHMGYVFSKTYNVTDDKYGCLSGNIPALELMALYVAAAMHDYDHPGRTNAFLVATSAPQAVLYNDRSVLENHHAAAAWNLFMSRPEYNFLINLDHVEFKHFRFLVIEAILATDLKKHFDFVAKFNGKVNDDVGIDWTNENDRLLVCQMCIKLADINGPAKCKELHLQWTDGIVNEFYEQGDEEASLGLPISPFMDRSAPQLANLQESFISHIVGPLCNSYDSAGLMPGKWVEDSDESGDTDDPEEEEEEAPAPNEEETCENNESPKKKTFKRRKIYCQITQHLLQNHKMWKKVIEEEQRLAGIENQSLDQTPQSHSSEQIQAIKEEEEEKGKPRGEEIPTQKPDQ

Turning to `C[C@H](CSC(=O)c1ccccc1)C(=O)N1C[C@@H](Sc2ccccc2)C[C@H]1C(=O)O` [ZOFENOPRIL], the AC50 (in general, the midpoint of the concentration-response curve, whichever way the signal moves) is over 30 µM in experiment [1]; over 30 µM in [2]; over 10 µM in [3]; over 30 µM in experiment [4]; over 10 µM in [5]; over 10 µM in experiment [6]. The concentration at half-maximal activity (AC50) in [7], in [8], in experiment [9], in experiment [10] and in [11] was over 10 µM each time.
